Columns and labels:
Assay in all cases: biochemical
Design in all cases: KINOMEscan scanMAX active site-directed competition binding assay, percent of control, 468 kinases
Conditions in all cases: competition binding, percent of control
MINK = molecular target: T1, MINK (Homo sapiens, UniProt Q8N4C8)
T1 construct: gene MINK1
Method in brief: (§1)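 Single-concentration screen (100 μM S-carvone) in a competition binding panel of 468 human kinases (KINOMEscan scanMAX); results given as percent of control, hit cutoff 35%.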

PRKCH = PRKCH (Homo sapiens, UniProt P24723)
Sequence of PRKCH (P24723 whole entry): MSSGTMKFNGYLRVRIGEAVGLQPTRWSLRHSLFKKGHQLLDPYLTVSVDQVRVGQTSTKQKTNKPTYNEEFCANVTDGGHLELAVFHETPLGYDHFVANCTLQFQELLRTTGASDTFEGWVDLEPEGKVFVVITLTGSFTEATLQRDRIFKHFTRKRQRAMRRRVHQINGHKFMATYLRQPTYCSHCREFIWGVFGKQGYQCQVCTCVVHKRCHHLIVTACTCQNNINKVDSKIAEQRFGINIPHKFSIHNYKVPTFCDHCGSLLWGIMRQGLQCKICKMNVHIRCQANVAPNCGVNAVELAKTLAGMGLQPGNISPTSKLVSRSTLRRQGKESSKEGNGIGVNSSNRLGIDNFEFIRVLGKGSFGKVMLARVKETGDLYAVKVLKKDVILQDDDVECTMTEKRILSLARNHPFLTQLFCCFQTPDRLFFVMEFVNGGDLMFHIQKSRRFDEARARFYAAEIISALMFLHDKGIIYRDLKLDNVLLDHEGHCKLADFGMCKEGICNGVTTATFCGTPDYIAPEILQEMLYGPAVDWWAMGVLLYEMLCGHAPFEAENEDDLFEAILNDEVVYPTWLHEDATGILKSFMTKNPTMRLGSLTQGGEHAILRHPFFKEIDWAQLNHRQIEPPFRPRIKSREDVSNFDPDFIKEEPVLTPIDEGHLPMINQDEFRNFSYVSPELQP
Method in brief: as §1

GRK1 = GRK1 (Homo sapiens, UniProt Q15835)
Sequence of GRK1 (Q15835 whole entry): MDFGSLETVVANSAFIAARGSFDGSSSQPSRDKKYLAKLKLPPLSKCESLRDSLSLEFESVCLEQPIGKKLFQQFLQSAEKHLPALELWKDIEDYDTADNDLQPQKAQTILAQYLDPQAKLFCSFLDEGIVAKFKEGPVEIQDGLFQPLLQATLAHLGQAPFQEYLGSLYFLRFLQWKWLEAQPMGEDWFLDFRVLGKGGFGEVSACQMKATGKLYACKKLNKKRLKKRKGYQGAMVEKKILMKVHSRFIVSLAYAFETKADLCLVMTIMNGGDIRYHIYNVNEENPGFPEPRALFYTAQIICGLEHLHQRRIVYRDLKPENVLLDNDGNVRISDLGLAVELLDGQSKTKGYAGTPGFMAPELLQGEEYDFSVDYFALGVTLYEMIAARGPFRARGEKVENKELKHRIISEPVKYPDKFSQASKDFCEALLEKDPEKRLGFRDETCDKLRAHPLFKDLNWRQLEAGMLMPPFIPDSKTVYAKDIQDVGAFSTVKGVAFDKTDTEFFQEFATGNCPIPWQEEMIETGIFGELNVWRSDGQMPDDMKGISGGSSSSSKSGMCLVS
Method in brief: as §1

PLK4 = PLK4 (Homo sapiens, UniProt O00444)
Method in brief: as §1

BMPR2 = BMPR2 (Homo sapiens, UniProt Q13873)
Method in brief: as §1

[1] = molecular target: T2, RPS6KA4(Kin.Dom.1-N-terminal) (Homo sapiens, UniProt O75676)
T2 construct: Kin.Dom.1-N-terminal
Method in brief: as §1

DAPK1 = DAPK1 (Homo sapiens, UniProt P53355)
Method in brief: as §1

HIPK4 = HIPK4 (Homo sapiens, UniProt Q8NE63)
Method in brief: as §1

DRAK2 = molecular target: T3, DRAK2 (Homo sapiens, UniProt O94768)
T3 construct: gene STK17B
Method in brief: as §1

ACVR2B = ACVR2B (Homo sapiens, UniProt Q13705)
Sequence of ACVR2B (Q13705 whole entry): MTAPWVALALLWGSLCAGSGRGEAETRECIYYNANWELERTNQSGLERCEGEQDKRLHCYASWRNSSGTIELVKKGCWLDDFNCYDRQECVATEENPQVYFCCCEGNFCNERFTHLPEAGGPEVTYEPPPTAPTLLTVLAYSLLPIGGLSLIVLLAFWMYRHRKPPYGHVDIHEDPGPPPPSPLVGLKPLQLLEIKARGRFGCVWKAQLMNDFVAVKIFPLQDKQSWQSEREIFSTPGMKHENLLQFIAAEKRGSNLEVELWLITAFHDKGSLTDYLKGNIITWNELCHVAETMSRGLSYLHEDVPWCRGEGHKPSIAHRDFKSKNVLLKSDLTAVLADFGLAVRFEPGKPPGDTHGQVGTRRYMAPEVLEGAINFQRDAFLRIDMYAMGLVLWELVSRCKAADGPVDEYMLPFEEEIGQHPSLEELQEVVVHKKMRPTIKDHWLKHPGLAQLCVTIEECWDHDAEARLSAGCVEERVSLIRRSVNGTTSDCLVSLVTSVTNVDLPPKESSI
Method in brief: as §1

PRP4 = molecular target: T4, PRP4 (Homo sapiens, UniProt Q13523)
T4 construct: gene PRPF4B
T4 sequence (Q13523 whole entry): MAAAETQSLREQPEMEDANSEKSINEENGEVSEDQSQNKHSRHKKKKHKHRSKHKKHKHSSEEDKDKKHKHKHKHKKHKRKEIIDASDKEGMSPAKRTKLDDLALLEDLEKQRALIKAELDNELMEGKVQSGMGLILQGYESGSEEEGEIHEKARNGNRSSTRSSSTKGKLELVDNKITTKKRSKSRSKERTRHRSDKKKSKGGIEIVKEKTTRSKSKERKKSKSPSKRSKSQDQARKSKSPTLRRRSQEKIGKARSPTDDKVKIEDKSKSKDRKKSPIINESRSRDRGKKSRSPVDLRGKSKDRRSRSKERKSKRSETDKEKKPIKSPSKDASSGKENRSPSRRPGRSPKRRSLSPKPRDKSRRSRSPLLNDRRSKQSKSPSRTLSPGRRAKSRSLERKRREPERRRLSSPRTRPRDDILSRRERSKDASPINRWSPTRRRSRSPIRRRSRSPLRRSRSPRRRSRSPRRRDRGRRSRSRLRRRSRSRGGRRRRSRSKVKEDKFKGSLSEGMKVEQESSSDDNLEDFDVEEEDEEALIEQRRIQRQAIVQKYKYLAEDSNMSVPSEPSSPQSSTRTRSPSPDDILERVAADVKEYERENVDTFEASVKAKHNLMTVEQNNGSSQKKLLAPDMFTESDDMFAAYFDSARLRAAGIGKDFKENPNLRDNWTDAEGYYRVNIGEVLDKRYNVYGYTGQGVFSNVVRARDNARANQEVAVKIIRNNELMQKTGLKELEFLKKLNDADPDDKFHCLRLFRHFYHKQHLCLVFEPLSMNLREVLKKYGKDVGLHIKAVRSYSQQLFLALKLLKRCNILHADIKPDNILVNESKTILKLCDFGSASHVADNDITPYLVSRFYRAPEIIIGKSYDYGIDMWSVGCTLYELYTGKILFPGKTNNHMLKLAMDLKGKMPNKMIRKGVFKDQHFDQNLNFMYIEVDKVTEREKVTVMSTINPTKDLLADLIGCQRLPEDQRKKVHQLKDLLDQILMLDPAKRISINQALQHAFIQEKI
Method in brief: as §1

ERBB3 = ERBB3 (Homo sapiens, UniProt P21860)
Method in brief: as §1

CAMK2G = CAMK2G (Homo sapiens, UniProt Q13555)
Sequence of CAMK2G (Q13555 whole entry): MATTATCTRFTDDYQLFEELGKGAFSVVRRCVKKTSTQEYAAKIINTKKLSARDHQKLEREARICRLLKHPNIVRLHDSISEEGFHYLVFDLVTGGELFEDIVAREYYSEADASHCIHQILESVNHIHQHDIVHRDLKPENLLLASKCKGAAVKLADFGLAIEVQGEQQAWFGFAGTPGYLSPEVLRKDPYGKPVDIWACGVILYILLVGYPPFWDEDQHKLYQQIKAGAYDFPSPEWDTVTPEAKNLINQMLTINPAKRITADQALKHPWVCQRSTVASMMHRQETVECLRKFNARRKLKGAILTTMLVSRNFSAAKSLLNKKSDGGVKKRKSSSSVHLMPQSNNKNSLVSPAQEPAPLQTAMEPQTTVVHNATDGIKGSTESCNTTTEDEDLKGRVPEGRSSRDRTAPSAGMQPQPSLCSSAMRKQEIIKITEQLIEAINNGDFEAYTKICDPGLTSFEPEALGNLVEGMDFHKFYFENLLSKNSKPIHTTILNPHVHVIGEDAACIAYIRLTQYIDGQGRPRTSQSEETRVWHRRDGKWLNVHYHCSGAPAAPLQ
Method in brief: as §1

STK35 = STK35 (Homo sapiens, UniProt Q8TDR2)
Method in brief: as §1

CLK3 = CLK3 (Homo sapiens, UniProt P49761)
Method in brief: as §1

VEGFR2 = molecular target: T5, VEGFR2 (Homo sapiens, UniProt P35968)
T5 construct: gene KDR
Method in brief: as §1

BMPR1A = BMPR1A (Homo sapiens, UniProt P36894)
Sequence of BMPR1A (P36894 whole entry): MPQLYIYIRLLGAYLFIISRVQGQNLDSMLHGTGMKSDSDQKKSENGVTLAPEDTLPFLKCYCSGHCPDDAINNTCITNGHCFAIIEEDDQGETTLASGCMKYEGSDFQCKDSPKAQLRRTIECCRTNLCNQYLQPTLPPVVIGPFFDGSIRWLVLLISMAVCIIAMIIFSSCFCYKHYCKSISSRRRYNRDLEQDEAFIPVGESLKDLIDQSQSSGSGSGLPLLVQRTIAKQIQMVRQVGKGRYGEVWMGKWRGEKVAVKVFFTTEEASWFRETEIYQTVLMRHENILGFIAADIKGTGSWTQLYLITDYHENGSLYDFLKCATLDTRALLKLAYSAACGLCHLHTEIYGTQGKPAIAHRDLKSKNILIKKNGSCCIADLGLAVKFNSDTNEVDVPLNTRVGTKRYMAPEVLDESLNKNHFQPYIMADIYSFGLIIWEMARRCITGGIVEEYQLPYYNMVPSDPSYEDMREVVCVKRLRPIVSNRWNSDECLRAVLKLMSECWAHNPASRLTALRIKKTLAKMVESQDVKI
Method in brief: as §1

[2] = molecular target: T6, JAK3(JH1domain-catalytic) (Homo sapiens, UniProt P52333)
T6 construct: JH1domain-catalytic
Method in brief: as §1

AMPK-alpha2 = molecular target: T7, AMPK-alpha2 (Homo sapiens, UniProt P54646)
T7 construct: gene PRKAA2
T7 sequence (P54646 whole entry): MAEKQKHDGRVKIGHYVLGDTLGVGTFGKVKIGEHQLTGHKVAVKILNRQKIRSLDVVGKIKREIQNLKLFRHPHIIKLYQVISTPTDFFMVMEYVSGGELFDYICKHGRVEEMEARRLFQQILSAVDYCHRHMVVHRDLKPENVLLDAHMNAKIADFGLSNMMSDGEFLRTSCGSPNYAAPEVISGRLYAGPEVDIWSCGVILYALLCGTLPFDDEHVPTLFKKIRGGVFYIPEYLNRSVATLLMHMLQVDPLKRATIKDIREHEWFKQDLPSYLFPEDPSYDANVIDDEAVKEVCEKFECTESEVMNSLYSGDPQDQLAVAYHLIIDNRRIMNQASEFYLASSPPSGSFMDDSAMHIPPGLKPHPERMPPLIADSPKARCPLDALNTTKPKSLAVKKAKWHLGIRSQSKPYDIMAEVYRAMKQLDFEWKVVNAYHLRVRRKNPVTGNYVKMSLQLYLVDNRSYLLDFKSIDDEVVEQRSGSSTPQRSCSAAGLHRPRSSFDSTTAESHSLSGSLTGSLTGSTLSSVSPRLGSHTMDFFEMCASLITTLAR
Method in brief: as §1

EPHA3 = EPHA3 (Homo sapiens, UniProt P29320)
Method in brief: as §1

RIOK1 = RIOK1 (Homo sapiens, UniProt Q9BRS2)
Sequence of RIOK1 (Q9BRS2 whole entry): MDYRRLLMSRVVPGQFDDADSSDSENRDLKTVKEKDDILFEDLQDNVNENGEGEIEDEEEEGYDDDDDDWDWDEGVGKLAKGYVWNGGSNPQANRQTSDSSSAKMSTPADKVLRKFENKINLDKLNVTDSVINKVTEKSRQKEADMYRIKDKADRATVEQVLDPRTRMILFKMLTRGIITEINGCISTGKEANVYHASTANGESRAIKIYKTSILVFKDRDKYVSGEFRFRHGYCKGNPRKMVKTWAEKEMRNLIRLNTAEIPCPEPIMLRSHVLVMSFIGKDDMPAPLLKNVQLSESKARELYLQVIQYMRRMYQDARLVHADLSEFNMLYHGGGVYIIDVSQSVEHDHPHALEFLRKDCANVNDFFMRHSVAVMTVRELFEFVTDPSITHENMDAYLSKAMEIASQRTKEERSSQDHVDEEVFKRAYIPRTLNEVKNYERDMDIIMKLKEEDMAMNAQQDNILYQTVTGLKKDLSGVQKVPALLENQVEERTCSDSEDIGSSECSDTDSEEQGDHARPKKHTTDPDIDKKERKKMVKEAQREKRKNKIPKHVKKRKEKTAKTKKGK
Method in brief: as §1

STK39 = STK39 (Homo sapiens, UniProt Q9UEW8)
Method in brief: as §1

remaining binding at 100 µM (MINK): 72%
remaining binding at 100 µM (PRKCH): 73%
remaining binding at 100 µM (GRK1): 74%
remaining binding at 100 µM (PLK4): 76%
remaining binding at 100 µM (BMPR2): 79%
remaining binding at 100 µM [1]: 87%
remaining binding at 100 µM (DAPK1): 65%
remaining binding at 100 µM (HIPK4): 66%
remaining binding at 100 µM (DRAK2): 98%
remaining binding at 100 µM (ACVR2B): 75%
remaining binding at 100 µM (PRP4): 62%
remaining binding at 100 µM (ERBB3): 78%
remaining binding at 100 µM (CAMK2G): 84%
remaining binding at 100 µM (STK35): 92%
remaining binding at 100 µM (CLK3): 99%
remaining binding at 100 µM (VEGFR2): 60%
remaining binding at 100 µM (BMPR1A): 92%
remaining binding at 100 µM [2]: 90%
remaining binding at 100 µM (AMPK-alpha2): 88%
remaining binding at 100 µM (EPHA3): 100%
remaining binding at 100 µM (RIOK1): 100%
remaining binding at 100 µM (STK39): 80%
Structure (SMILES): C=C(C)[C@H]1CC=C(C)C(=O)C1 [S-carvone]

Source: article PMC10174618, “Monoterpenoid aryl hydrocarbon receptor allosteric antagonists protect against ultraviolet skin damage in female mice” (Nature Communications, 2023)
